The source of these data is publication PMC8533089, “Characteristics of Neurokinin-3 Receptor and Its Binding Sites by Mutational Analysis” (Biology, 2021).

Entries after “also recorded” stand apart in the source; their conditions may differ.

In one test the test system is LH plasma levels. As to the kind of experiment: In vivo effect of NKB antagonists on LH plasma levels (ELISA). Details: species or system adult male tilapia (Oreochromis niloticus). The method, then:
The levels of FSH, LH and GH in the plasma were measured by specific competitive enzyme-linked immunosorbent assay (ELISA), developed for tilapia, based on recombinant gonadotropins or GH that were created by using the yeast Pichia pastoris. For the ELISAs, we used primary antibody antisera against GH [51], FSHβ [52], or against rtLHβ [53], and rtFSHβα [52], rtLHβ [53] or tiGH for the standard curves. Sensitivity for the plasma measurements were 15.84 pg/mL for LH, 0.24 pg/mL for FSH and 30.0 pg/mL for GH. The inter-assay coefficient of variation (CV) was 14.8, 12.5, and 13.0%, while intra-assay CV was 7.2, 8.0, and 8.0% for LH, FSH and GH, respectively.
Adult male tilapia (BW 89.29 ± 32.93 g; gonado-somatic index (GSI) 0.24% ± 0.40%) were injected IP (intraperitoneal) with NKB antagonists, SB-222200 or Osanetant (100 µg/kg BW), and after 0.5 h, a second injection of sGnRHa (10 µg/kg BW) was added. Control groups were injected with sGnRHa ([DAla^6, Pro^9-Net]-mammalian GnRH; Bachem, Budendorf, Switzerland) 10 µg/kg BW) as a positive control. The fish were bled from the caudal blood vessels into heparinized syringes 0, 0.5, 2, 6 and 24 h after injection. This time course is according to standard protocols used previously to test the effect of GnRH on circulating levels of LH, FSH, and GH in tilapia. Blood samples were collected from the caudal vasculature and centrifuged (3200 rpm for 30 min at 4 °C) (Centrifuge: Fresco 17, Rotor: 75003424, Thermo Scientific™, Langenselbold Germany) to obtain plasma samples, which were stored at −20 °C until assayed. Three independent experiments were carried out for the in-vivo studies.

In another test the test system is milt volume. As to the kind of experiment: 14-day in vivo experiment: milt volume / sperm production. Conditions: 500 µg/kg BW IP every 48 h; days 7 and 14; six fish per group; versus control. Details: species or system adult male tilapia (Oreochromis niloticus). The method, then: (§1) Adult male tilapia (BW 87.29 ± 26.1 g; gonado-somatic index (GSI 0.21% ± 0.36%) were IP injected with SB-222200 (500 µg/kg BW in 25% DMSO) and saline with 25% DMSO as a control every 48 h during a 14-day period. Blood was sampled every 48 h. Milt volume was collected from 6 fish from each group 7 and 14 days after the first injection, generally according to [55].

The subject of another test is 11-KT plasma levels. As to the kind of experiment: 14-day in vivo experiment: plasma 11-KT (ELISA). The settings on record: 500 µg/kg BW IP every 48 h, 14 days; n = 6. Details: species or system adult male tilapia (Oreochromis niloticus). Here is the method:
as §1
11-KT levels were determined by ELISA, according to [52], using acetylcholine-esterase as a label. The anti- 11-KT was donated by Dr. D.E. Kime (Sheffield, UK). All samples were analyzed in duplicate, and for each ELISA plate, a separate standard curve was run. The lower limits of detection were 0.93 for 11-KT. The intra- and inter-assay coefficients of variance were less than 7%. Steroid levels in the plasma, determined by ELISA, were validated by verifying that serial dilutions were parallel to the standard curve.

The subject of test [1] is Tac3R of the striped bass. Details: method as in PMID 28330973. Conditions: cited from earlier work. From the text:
The effect of NKB/NKF peptides on gonadotropin secretion in fish is already well established. The first indication that NKB is widely expressed in fish species and has a stimulatory reproductive effect was shown in zebrafish, goldfish, and tilapia. […] Osetanant re ...

`CC[C@H](NC(=O)c1c(C)c(-c2ccccc2)nc2ccccc12)c1ccccc1` [SB-222200]: the LH plasma levels result with LH plasma levels (100 µg/kg BW IP, 2 h after injection, versus sGnRHa, n = 10) is recorded as “significantly lower”. For the same molecule, the “LH levels in plasma, sole IP injection” value in the test with LH plasma levels (Discussion) is “decrease in the LH levels in plasma”. For the same molecule, in the test with LH plasma levels (antagonist 100 µg/kg BW IP, then sGnRHa 10 µg/kg BW after 0.5 h, n = 10), the “LH release, combination with sGnRHa” value was “inhibitory effect on LH release, without any significant change when compared to the sGnRHa; also recorded: drop in LH release”. The “LH plasma levels (abstract)” value in the test with LH plasma levels (two hours post intraperitoneal injection) is on record as “decreased LH plasma levels”. In the test with milt volume, the “sperm production (milt volume)” value was “retained a low sperm production after 7 and 14 days compared to that of the control group”. The 11-KT plasma levels result in the test with 11-KT plasma levels was “significantly delayed the rise of 11-KT levels in plasma”. Besides, in test [1], the “antagonistic effect on the Tac3R of the striped bass” value is reported as “no antagonistic effect”.
